Test results from ChEMBL document CHEMBL1158331, “Insect Antifeedant Isoryanodane Diterpenes from Persea indica” (1997).

Assays:
Spodoptera litura [1] = experiment: Antifeedant activity against Spodoptera litura third instar larvae by choice leaf disk assay; format: functional; parameters: unit not given here
Spodoptera litura [2] = experiment: Antifeedant activity against Spodoptera litura third instar larvae assessed as feeding index at 1000 ppm by choice leaf disk assay; format: functional

SMILES | logEC50 (Spodoptera litura [1]) | Activity (Spodoptera litura [2])
C/C=C(\C)C(=O)O[C@H]1C[C@@H](OC(C)=O)[C@@]2(C(=O)OC)CO[C@H]3[C@@H](O)[C@@](C)([C@]45O[C@@]4(C)[C@@H]4C[C@H]5O[C@@H]5OC=C[C@@]54O)[C@H]4[C@]1(CO[C@]4(O)C(=O)OC)[C@@H]32 [AZADIRACHTIN A] | 0.25 | 
CC(C)[C@@]1(O)C[C@@]2(O)[C@@]3(C)C[C@]4(O)O[C@@]5([C@H](O)[C@@H](C)CC[C@]35O)[C@@]2(O)[C@@]41C [CINNZEYLANOL] | 1.93 | 
CC(C)[C@@H]1C[C@@H]2[C@@]3(O)[C@@H]4O[C@@](O)(C[C@]2(C)[C@]2(O)CC[C@H](C)[C@H]42)[C@]13C [INDICOL] | >3 | 49.39
CC(C)[C@@]1(O)C[C@@]2(O)[C@]3(C)C[C@]4(O)O[C@H]([C@@]5(O)[C@@H](C)CC[C@]53O)[C@@]2(O)[C@]41C [PERSEANOL] | 2.23 | 11.43
CC(C)[C@@]1(O)[C@@H](OC(=O)c2cc[nH]c2)[C@@]2(O)[C@]3(C)C[C@@]4(O)O[C@@]5([C@H](O)[C@@H](C)CC[C@]35O)[C@@]2(O)[C@@]41C [RYANODINE] | 1.15 | 
CC(C)[C@@]1(O)[C@@H](O)[C@@]2(O)[C@@]3(C)C[C@]4(O)O[C@@]5([C@H](O)[C@@H](C)CC[C@]35O)[C@@]2(O)[C@]14C [RYANODOL] | 2.18 | 
CC(C)[C@@]1(O)C[C@@]2(O)[C@]3(C)C[C@]4(O)O[C@H]([C@H]5[C@@H](C)CC[C@]53O)[C@@]2(O)[C@]41C [VIGNATICOL] | 1.97 | 12.57
